Experimental data: patent US11685902B2, “Production method for kidney-like tissue” (Tokushima University, priority 2016, dated 2023)

Columns and labels:
[1] = tested on: kidney-like microspheres (HUVEC, hMSC, HEK, hMC, HK2); type: cell-based, human
Method: Kidney-like organoids were produced in vitro by co-culturing endothelial cells (HUVEC), mesenchymal stem cells (hMSC), and human embryonic kidney cells (HEK) with human mesangial cells (hMC) and human renal tubular cells (HK2). 5×10^4 hMSC, 2×10^5 HUVEC, 5×10^4 HEK, 5×10^4 hMC, and 5×10^4 HK 2 were suspended in 2 ml 10% FCS or MSCGM, and seeded in a MicroWell culture plate. After incubation in a 5% CO2 humidified incubator at 37° C. for 24 hours, formation of cell aggregates and microspheres was observed (FIG. 6). The resulting kidney-like microspheres maintained their spherical morphology for 20 days or longer. • 7. Analysis of Gene Expression
RT-PCR analysis was performed on mRNA of kidney-like microspheres using five types of cells. Total RNA was extracted from the spheres using a TRIzol reagent (Invitrogen), and reverse-transcribed with an oligo (dT) primer using a SuperScript First-Strand Synthesis kit (Invitrogen) to produce first-strand cDNA. Subsequently, PCR was performed to detect the expression of renal tubular cell-specific genes, renal tubular injury marker (epithelial-mesenchymal transition (EMT)) genes, and GAPDH. […] The influence of cisplatin was analyzed by adding cisplatin to the culture solution to a final concentration of 5 μM, and extracting RNA after 3 hours and after 24 hours for analysis. […]

[2] = tested on: three-dimensional kidney-like tissue (embryonic kidney cells, mesenchymal stem cells, proximal renal tubular cells, vascular endothelial cells); type: cell-based
Method: Embryonic kidney cells, mesenchymal stem cells, proximal renal tubular cells, and vascular endothelial cells were co-cultured for 24 hours to obtain a self-organized, three-dimensional kidney-like tissue (FIG. 9 (A)). This was exposed to cisplatin at a concentration of 5 μM, and spheres were collected after 3 hours and after 24 hours. After extraction of RNA, changes in gene expression were analyzed by the RT-PCR method. After the culture solution of the spheres was collected and cell components were separated by centrifugation, β2 microglobulin was measured with a “Lumipulse Presto β2-M” (produced by Fujirebio, Inc.) kit (FIG. 9 (B)). Further, changes in the shape of the spheres were imaged using an optical microscope (FIG. 9 (C)). […] Use of Microspheres as Kidney Model (Podocyte Injury)

[3] = tested on: three-dimensional kidney-like tissue (embryonic kidney cells, mesenchymal stem cells, vascular endothelial cells); assay: Kidney model (podocyte injury): three-dimensional kidney-like tissue exposed to puromycin, nephrin qRT-PCR; type: cell-based; settings: puromycin 50 μg/ml, 24 hours, qRT-PCR (FIG. 10)
Method: Embryonic kidney cells, mesenchymal stem cells, and vascular endothelial cells were co-cultured for 24 hours to obtain a self-organized, three-dimensional kidney-like tissue. The kidney-like tissue was exposed to puromycin at a concentration of 50 μg/ml. After 24 hours, spheres were collected. After extraction of RNA, changes in nephrin gene expression were analyzed by the qRT-PCR method (FIG. 10). […] Using this model allows for screening an effective drug for podocyte injury. • 12. Use as Pathophysiological Analysis System for Human Refractory Renal Disease

N.N.[Cl][Pt][Cl] [cisplatin]
expression of genes constitutively expressed in podocytes [1]: reduction
renal damage reflected by analysis results (gene expression, β2 microglobulin, sphere shape) [2]: renal tubular injury at the acute phase and podocyte injury at the chronic phase

CN(C)C(=N)N=C(N)N [metformin]
abnormal changes in gene expression in acute kidney injury caused by cisplatin ([1]; pre-administration, 3 hours after cisplatin administration (left side of FIG. 7)): inhibited

COc1ccc(C[C@H](N)C(=O)N[C@H]2[C@@H](O)[C@H](n3cnc4c(N(C)C)ncnc43)O[C@@H]2CO)cc1 [puromycin]
podocyte injury (changes in nephrin gene expression) [3]: podocyte injury model, which was conventionally prepared by using mice, can be reproduced
